Data set [1] concerns Pseudomonas aeruginosa. The experiment in a line: Antibacterial activity against Pseudomonas aeruginosa 260-97103 assessed as fractional inhibitory concentration incubated for 18 hrs in presence of doxycycline by broth microdilution assay. The format is functional. In general terms: Broth dilution looks for growth in wells or tubes with falling amounts of substance.
For data set [2], the system named is Pseudomonas aeruginosa. The experiment in a line: Antibacterial activity against Pseudomonas aeruginosa 260-97103 assessed as reduction in bacterial growth by measuring doxycycline MIC at 8 ug/ml incubated for 18 hrs in presence of doxycycline by broth microdilution assay (reference value: 16 ug/ml). The conditions noted are these: dose 8 µg/ml. The format is functional.

In data set [3] the test system is Pseudomonas aeruginosa. The experiment in a line: Antibacterial activity against Pseudomonas aeruginosa 260-97103 assessed as reduction in bacterial growth by measuring chloramphenicol MIC at 8 ug/ml incubated for 18 hrs in presence of chloramphenicol by broth microdilution assay (reference value: 128 ug/ml). The format is functional. Particulars: dose 8 µg/ml.

Data set [4] deals with Pseudomonas aeruginosa. The experiment in a line: Antibacterial activity against wild type Pseudomonas aeruginosa PAO1 assessed as reduction in bacterial growth by measuring chloramphenicol MIC at 0.25 ug/ml incubated for 18 hrs in presence of chloramphenicol by broth microdilution assay (reference value: 32 ug/ml). The conditions noted are these: dose 0.25 µg/ml. The format is functional.

The subject of data set [5] is Pseudomonas aeruginosa. The experiment in a line: Antibacterial activity against Pseudomonas aeruginosa 100036 assessed as reduction in bacterial growth by measuring chloramphenicol MIC at 8 ug/ml incubated for 18 hrs in presence of chloramphenicol by broth microdilution assay (reference value: 1024 ug/ml). Particulars: dose 8 µg/ml. The format is functional.
Data set [6] concerns Pseudomonas aeruginosa. The experiment in a line: Antibacterial activity against wild type Pseudomonas aeruginosa PAO1 assessed as reduction in bacterial growth by measuring doxycycline MIC at 8 ug/ml incubated for 18 hrs in presence of doxycycline by broth microdilution assay (reference value: 16 ug/ml). It is filed as functional. Particulars: dose 8 µg/ml.
In data set [7] the test system is Pseudomonas aeruginosa. The experiment in a line: Antibacterial activity against Pseudomonas aeruginosa 262-101856 assessed as reduction in bacterial growth by measuring chloramphenicol MIC at 16 ug/ml incubated for 18 hrs in presence of chloramphenicol by broth microdilution assay (reference value: 2048 ug/ml). It is filed as functional. Particulars: dose 16 µg/ml.

In data set [8] the test system is Pseudomonas aeruginosa. The experiment in a line: Potentiation of chloramphenicol-induced antibacterial activity against Pseudomonas aeruginosa 264-101354 assessed as fold change in chloramphenicol MIC at 9.8 uM incubated for 18 hrs in presence of chloramphenicol by broth microdilution assay relative to control. It is filed as functional.
For the next data set, the system named is Klebsiella pneumoniae. The experiment in a line: Potentiation of doxycycline-induced antibacterial activity against Klebsiella pneumoniae ATCC 16381 assessed as fold change in doxycycline MIC at 9.8 uM incubated for 18 hrs in presence of doxycycline by broth microdilution assay relative to control. It is filed as functional.
Data set [9] relates to Pseudomonas aeruginosa. The experiment in a line: Antibacterial activity against Pseudomonas aeruginosa 101243 assessed as fractional inhibitory concentration index incubated for 18 hrs in presence of minocycline by broth microdilution assay. It is filed as functional.
Data set [10] relates to Enterobacter cloacae. The experiment in a line: Potentiation of doxycycline-induced antibacterial activity against Enterobacter cloacae ATCC 117029 assessed as fold change in doxycycline MIC at 9.8 uM incubated for 18 hrs in presence of doxycycline by broth microdilution assay relative to control. It is filed as functional.
A further data set concerns HepG2. The experiment in a line: Cytotoxicity against human HepG2 cells assessed as cell viability at 50 uM incubated for 48 hrs in presence of chloramphenicol by prestoblue assay. The format is cell-based. Particulars: hepg2, 48 h.
In data set [11] the test system is Pseudomonas aeruginosa. The experiment in a line: Potentiation of chloramphenicol-induced antibacterial activity against Pseudomonas aeruginosa PAO200 harboring mexA-mexB-oprM deletion mutant assessed as fold change in chloramphenicol MIC at <=9.8 uM incubated for 18 hrs in presence of chloramphenicol by broth microdilution assay. It is filed as functional. Particulars: dose microM <=9.8.

Data set [12] deals with Pseudomonas aeruginosa. The experiment in a line: Antibacterial activity against Pseudomonas aeruginosa 262-101856 assessed as fractional inhibitory concentration incubated for 18 hrs in presence of minocycline by broth microdilution assay. The format is functional.
For data set [13], the system named is Pseudomonas aeruginosa. The experiment in a line: Antibacterial activity against Pseudomonas aeruginosa 91433 assessed as fractional inhibitory concentration incubated for 18 hrs in presence of tigecycline by broth microdilution assay. It is filed as functional.
Data set [14] has as its system Pseudomonas aeruginosa. The experiment in a line: Potentiation of doxycycline-induced antibacterial activity against Pseudomonas aeruginosa PAO200 harboring mexA-mexB-oprM deletion mutant assessed as fold change in doxycycline MIC at <=9.8 uM incubated for 18 hrs in presence of doxycycline by broth microdilution assay. The format is functional. Particulars: dose microM <=9.8.

Data set [15] relates to Pseudomonas aeruginosa. The experiment in a line: Antibacterial activity against Pseudomonas aeruginosa 262-101856 assessed as fractional inhibitory concentration incubated for 18 hrs in presence of tigecycline by broth microdilution assay. The format is functional.
The test system of data set [16] is Pseudomonas aeruginosa. The experiment in a line: Antibacterial activity against Pseudomonas aeruginosa 264-101354 assessed as fractional inhibitory concentration index incubated for 18 hrs in presence of rifampicin by broth microdilution assay. It is filed as functional.
Data set [17] has as its system Pseudomonas aeruginosa. The experiment in a line: Antibacterial activity against Pseudomonas aeruginosa 100036 assessed as fractional inhibitory concentration incubated for 18 hrs in presence of rifampicin by broth microdilution assay. The format is functional.
For a further data set, the system named is HEK293. The experiment in a line: Cytotoxicity against human HEK293 cells assessed as cell viability at 50 uM incubated for 48 hrs in presence of chloramphenicol by prestoblue assay. The format is cell-based. Particulars: hek293, 48 h.
The subject of data set [18] is Pseudomonas aeruginosa. The experiment in a line: Antibacterial activity against Pseudomonas aeruginosa 91433 assessed as potentiation of chloramphenicol-induced antibacterial activity by measuring chloramphenicol MIC at 9.8 uM incubated for 18 hrs in presence of chloramphenicol by broth microdilution assay (reference value: 8 ug/ml). It is filed as functional.
The subject of data set [19] is Pseudomonas aeruginosa. The experiment in a line: Antibacterial activity against Pseudomonas aeruginosa 114228 assessed as fractional inhibitory concentration incubated for 18 hrs in presence of rifampicin by broth microdilution assay. The format is functional.
The test system of data set [20] is Pseudomonas aeruginosa. The experiment in a line: Antibacterial activity against Pseudomonas aeruginosa 260-97103 infected in Galleria mellonella larvae assessed as mortality of larvae at 100 mg/kg administered at 3 hrs post-infection and measured every 6 hrs for 36 hrs. It is filed as functional.
The test system of data set [21] is Pseudomonas aeruginosa. The experiment in a line: Antibacterial activity against Pseudomonas aeruginosa 114228 assessed as potentiation of doxycycline-induced antibacterial activity by measuring doxycycline MIC at 9.8 uM incubated for 18 hrs in presence of doxycycline by broth microdilution assay (reference value: 32 ug/ml). It is filed as functional.
Data set [22] concerns Pseudomonas aeruginosa. The experiment in a line: Antibacterial activity against Pseudomonas aeruginosa 100036 assessed as fractional inhibitory concentration index incubated for 18 hrs in presence of minocycline by broth microdilution assay. The format is functional.
Data set [23] concerns Pseudomonas aeruginosa. The experiment in a line: Antibacterial activity against Pseudomonas aeruginosa 114228 assessed as fractional inhibitory concentration incubated for 18 hrs in presence of minocycline by broth microdilution assay. It is filed as functional.
Data set [24] relates to Pseudomonas aeruginosa. The experiment in a line: Potentiation of doxycycline-induced antibacterial activity against Pseudomonas aeruginosa 100036 assessed as fold change in doxycycline MIC at 9.8 uM incubated for 18 hrs in presence of doxycycline by broth microdilution assay relative to control. The format is functional.
In data set [25] the test system is Pseudomonas aeruginosa. The experiment in a line: Antibacterial activity against Pseudomonas aeruginosa 262-101856 assessed as fractional inhibitory concentration index incubated for 18 hrs in presence of rifampicin by broth microdilution assay. The format is functional.
In data set [26] the test system is Enterobacter cloacae. The experiment in a line: Potentiation of chloramphenicol-induced antibacterial activity against Enterobacter cloacae ATCC 117029 assessed as fold change in chloramphenicol MIC at 7.6 uM incubated for 18 hrs in presence of chloramphenicol by broth microdilution assay relative to control. The format is functional.
Data set [27] concerns Pseudomonas aeruginosa. The experiment in a line: Potentiation of chloramphenicol-induced antibacterial activity against Pseudomonas aeruginosa 100036 assessed as fold change in chloramphenicol MIC at 7.6 uM incubated for 18 hrs in presence of chloramphenicol by broth microdilution assay relative to control. It is filed as functional.
The test system of data set [28] is Pseudomonas aeruginosa. The experiment in a line: Antibacterial activity against Pseudomonas aeruginosa 101243 assessed as potentiation of doxycycline-induced antibacterial activity by measuring doxycycline MIC at 7.6 uM incubated for 18 hrs in presence of doxycycline by broth microdilution assay (reference value: 4 ug/ml). The format is functional.

The record followed here is ChEMBL document CHEMBL4715829, “Heterodimeric Rifampicin-Tobramycin conjugates break intrinsic resistance of Pseudomonas aeruginosa to doxycycline and chloramphenicol in vitro and in a Galleria mellonella in vivo model” (Eur J Med Chem, 2019).

As usually defined, the MIC is the lowest concentration found to suppress growth. In general, mortality refers to the percentage killed.

Turning to `NC[C@H]1O[C@H](O[C@H]2[C@H](O)[C@@H](O[C@H]3O[C@H](CO)[C@@H](O)[C@H](N)[C@H]3O)[C@H](N)C[C@@H]2N)[C@H](N)C[C@@H]1O` [TOBRAMYCIN], the FIC in the data set on Pseudomonas aeruginosa [1] is 0.5. The MIC in the data set with Pseudomonas aeruginosa [2] was found to be 16 µg/mL; in the data set with Pseudomonas aeruginosa [3] it was 128 µg/mL; with Pseudomonas aeruginosa [4], 32 µg/mL; in the data set on Pseudomonas aeruginosa [5], 1020 µg/mL.
As to `CO[C@H]1/C=C/O[C@@]2(C)Oc3c(C)c(O)c4c(O)c(c(/C=N/N5CCN(C)CC5)c(O)c4c3C2=O)NC(=O)/C(C)=C\C=C\[C@H](C)[C@H](O)[C@@H](C)[C@@H](O)[C@@H](C)[C@H](OC(C)=O)[C@@H]1C` [RIFAMPIN], the MIC with Pseudomonas aeruginosa [6] worked out at 16 µg/mL; in the data set with Pseudomonas aeruginosa [7], 2050 µg/mL.
For `CO[C@H]1/C=C/O[C@@]2(C)Oc3c(C)c(O)c4c(O)c(c(/C=N/N5CCN(Cc6cn(CCCCCCO[C@@H]7[C@@H](O[C@H]8O[C@H](CO)[C@@H](O)[C@H](N)[C@H]8O)[C@H](N)C[C@H](N)[C@H]7O[C@H]7O[C@H](CN)[C@@H](O)C[C@H]7N)nn6)CC5)c(O)c4c3C2=O)NC(=O)/C(C)=C\C=C\[C@H](C)[C@H](O)[C@@H](C)[C@@H](O)[C@@H](C)[C@H](OC(C)=O)[C@@H]1C.Cl.Cl.Cl.Cl.Cl`, the “fold change (FC)” value with Pseudomonas aeruginosa [8] turned out to be 4; in the data set with Klebsiella pneumoniae it was 0; in the data set with Enterobacter cloacae [10], 0; in the data set on Pseudomonas aeruginosa [11] it was 16; in the data set with Pseudomonas aeruginosa [14], 8; with Pseudomonas aeruginosa [24] it was 4. Further, the “fractional inhibitory concentration index (FICI)” value with Pseudomonas aeruginosa [9] was less than 0.31; in the data set on Pseudomonas aeruginosa [16] it was 0.27; in the data set on Pseudomonas aeruginosa [22], 0.13; with Pseudomonas aeruginosa [25] it was less than 0.51. The Activity entry with HepG2 and in the data set on HEK293 was “Non-Toxic” each time. Further, the FIC is reported as less than 0.063 in the data set on Pseudomonas aeruginosa [12]; less than 0.125 in the data set with Pseudomonas aeruginosa [13]; less than 0.063 in the data set on Pseudomonas aeruginosa [15]; 0.063 with Pseudomonas aeruginosa [17]; less than 0.031 in the data set on Pseudomonas aeruginosa [19]; less than 0.031 with Pseudomonas aeruginosa [23]. Besides, the values for the MIC in the data set on Pseudomonas aeruginosa [18] and in the data set with Pseudomonas aeruginosa [21] were 2 µg/mL and 1 µg/mL, respectively. Moreover, the mortality at 100 mg/kg in the data set with Pseudomonas aeruginosa [20] amounted to 100%.
Regarding `CO[C@H]1/C=C/O[C@@]2(C)Oc3c(C)c(O)c4c(O)c(c(/C=N/N5CCN(Cc6cn(CCCCCCCCCCCCO[C@@H]7[C@@H](O[C@H]8O[C@H](CO)[C@@H](O)[C@H](N)[C@H]8O)[C@H](N)C[C@H](N)[C@H]7O[C@H]7O[C@H](CN)[C@@H](O)C[C@H]7N)nn6)CC5)c(O)c4c3C2=O)NC(=O)/C(C)=C\C=C\[C@H](C)[C@H](O)[C@@H](C)[C@@H](O)[C@@H](C)[C@H](OC(C)=O)[C@@H]1C.O=C(O)C(F)(F)F.O=C(O)C(F)(F)F.O=C(O)C(F)(F)F.O=C(O)C(F)(F)F.O=C(O)C(F)(F)F`, the “fold change (FC)” value with Enterobacter cloacae [26] is on record as 0; with Pseudomonas aeruginosa [27], 4. Besides, the MIC in the data set with Pseudomonas aeruginosa [28] was 0.125 µg/mL.
